“Also recorded” adds a separate entry of the source. Structures can show the parent of a compound that is named as a salt.
Assays:
MOLM14 cells [1] = test: alamarBlue cytotoxicity assay, single-drug IC50, 48 h; format: cell-based, human
Experimental: Peripheral wells were filled with sterile water to minimize the effects of evaporation. […] Results were normalized to cells treated with vehicle (≦0.5% DMSO) alone. IC50s were calculated using CompuSyn software and represent the means of at least three experiments performed in triplicate.

MOLM14 cells [2] = test: ROS - mitochondrial superoxide (MitoSOX flow cytometry); format: cell-based, human; conditions: for effect on AS-induced superoxide generation: MOLM14, combined with AS, 2.25x IC50s; for effect on AS-induced superoxide generation / effect on ART-838-induced superoxide generation: 16 h; for effect on ART-838-induced superoxide generation: MOLM14, combined with ART-838, 2.25x IC50s
Experimental: FIGS. 4A-4D. […] CIs were computed as described above. CI<1 indicates synergy, CI=1, additivity, CI>1, antagonism. […] Cells were then loaded with 5 μM MitoSox for 30 min, washed, and analyzed by flow cytometry for MitoSox fluorescence (indicating mitochondrial superoxide) in the FL2 channel. […] Error bars represent the SEM of three independent experiments.

KOPN8 cells = test: alamarBlue cytotoxicity assay, single-drug IC50, 48 h; format: cell-based; conditions: Homo sapiens, KOPN-8
Experimental: Cytotoxicity was assessed using alamarBlue assays (Life Technologies, Grand Island, N.Y.; used for IC50 determinations and all drug combinations except the drug combination screen (method described separately below)) or Trypan Blue dye exclusion (Life Technologies, Grand Island, N.Y.; used only for experiments using inhibitors that could interfere with alamarBlue assay performance (NAC, Tiron, DFO)).
Cell lines were seeded in 96-well tissue culture plates at 10^4 cells per well (myeloid leukemia lines) or 2×10^4 cells per well (lymphoid leukemia lines) in culture medium, followed by addition of drugs at the indicated concentrations. 2-4 wells per plate containing media-only were included for background subtraction. Peripheral wells were filled with sterile water to minimize the effects of evaporation.
MOLM14 cells were treated with each of these drugs, alone and in combination with ART-838 or AS at an equipotency ratio based on the IC50s for each drug (Table 1). In Table 1, KOPN8 and MOLM14 cell lines were treated with a range of concentrations of each drug for 48 h then cytotoxicity was measured via alamarBlue assay. Results were normalized to cells treated with vehicle (≦0.5% DMSO) alone. IC50s were calculated using CompuSyn software and represent the means of at least three experiments performed in triplicate. Addition of ART-838 or AS enhanced the cytotoxicity of all six tested drugs across a range of concentrations (FIG. 2). Drug interactions were typically most favorable (more additive/synergistic or less antagonistic) at higher doses.

MOLM14 cells [3] = test: Drug combination analysis (Chou and Talalay), simultaneous 48 h treatment, alamarBlue; format: cell-based, human; conditions: MOLM14, combined with AS, 2.25x single-drug IC50s
Experimental: FIGS. 2A-2B. ART-838 or AS enhanced the cytotoxicity of all six antileukemic drugs tested in MOLM14. […] Each experiment was performed three times in triplicate, and error bars represent the SEM. All panels have error bars but some are too small to be visible. Combination indices (CI) were computed for each drug combination using CompuSyn software, based on the Median Effect Principle and the CI theorem of Chou-Talalay, wherein CI=1 indicates additivity, CI<1 synergism, and CI>1 antagonism.
FIGS. 4A-4D. Effects of ART-838- and AS-containing drug combinations on MOLM14 growth and superoxide generation. […]. CIs were computed as described above. CI<1 indicates synergy, CI=1, additivity, CI>1, antagonism. […] Cells were then loaded with 5 μM MitoSox for 30 min, washed, and analyzed by flow cytometry for MitoSox fluorescence (indicating mitochondrial superoxide) in the FL2 channel. Mean fluorescence intensity (MFI) was normalized to that of vehicle control (0.5% DMSO) with no pretreatment (100%, lower dotted lines). Upper dotted lines show MFI of ART-838- or AS-treated cells. Error bars represent the SEM of three independent experiments.
For each two-drug pair, dose-response curves were generated for each drug individually and for the two drugs combined. […]. […]

MOLM14 cells [4] = test: Preliminary cytotoxicity of ROS/iron inhibitors (Trypan Blue dye exclusion assays); format: cell-based, human; conditions: read-out: approximate 48-hour IC50
[5] = test system: MOLM14-luc AML xenografts; test: Subcutaneous MOLM14-luc xenograft growth in NSG mice (ARA with ART-838); format: in vivo; conditions: ARA 40 mg/kg/d i.p. plus ART-838 200 mg/kg/d p.o.
Experimental: FIG. 14. ART-838 enhanced in vivo efficacy of ARA against acute leukemia xenografts in NSG mice. NSG mice transplanted subcutaneously with luciferase labeled MOLM14 (MOLM14-luc) AML cells, were treated with vehicle, ARA (“Ara-C”), ART-838 or ART-838 plus ARA starting on day 17 after transplantation. Ara-C (40 mg/kg/d) was given i.p. on day 17, 18, 19, 20, 21 and 24. ART-838 (200 mg/kg/d) was given p.o. on day 17, 20 and 24. Mouse tumors were measured on the indicated days.
Highly immunodeficient NSG mice, obtained originally from Jackson Laboratory (Bar Harbor, Me.), were bred and housed in the UMSOM animal facilities, and handled in a laminar flow hood under aseptic conditions. All experiment procedures and animal care were in compliance with the NIH guidelines for the Care and Use of Laboratory Animals and approved by the UMSOM Institutional Animal Care and Use Committee. ART-838 were formulated in Tween 80:ethanol (7:3, v:v) and diluted 1:10 in filtered deionized water immediately before administration. […] Mice were monitored daily and euthanized when tumors reached an estimated mass of 2000 mg (using the formula: [length×width2]/2, assuming density=1 mg/mm3).
The anti-leukemic efficacy of ART-838 plus ARA was tested in NSG mice transplanted subcutaneously with luciferase labeled MOLM14 (MOLM14-luc) AML cells. […] Mouse tumors were measured with calipers on the indicated days.

MOLM14 AML xenografts = test: Subcutaneous MOLM14 xenograft growth in NSG mice (SOR with AS); format: in vivo; conditions: SOR plus AS p.o.
Experimental: FIG. 15. AS enhanced in vivo efficacy of Sorafenib (SOR) against acute leukemia xenografts in NSG mice. […] Drug or vehicle were given p.o. on day 3-7, 17-21, and 31-35 when possible. Mouse tumors were measured on the indicated days.
The NSG mice were obtained, maintained and handled as described in the paragraph immediately above. AS was also formulated in Tween 80:ethanol (7:3, v:v) and diluted 1:10 in filtered deionized water immediately before administration. For the human AML xenograft model, 6-12-week-old male NSG mice (>20 g) were transplanted sc with MOLM14 cells on day 0 and drug-treated via oral gavage, as specified in legend. Mice were monitored daily and euthanized when tumors reached an estimated mass of 2000 mg as described in the paragraph immediately above.
Palpable tumors appeared about 2 weeks after transplantation.

[6] = Homo sapiens, MOLM-14, MOLM14, single drug, 48 h, alamarBlue

Row | SMILES | IC50 (MOLM14 cells [1]; [6]) | IC50 (KOPN8 cells) | effect on AS-induced superoxide generation (MOLM14 cells [2]) | other results
1 | C[C@@H]1CCC2[C@@H](C)[C@@H](CC(COP(=O)(Oc3ccccc3)Oc3ccccc3)C[C@H]3O[C@@H]4O[C@@]5(C)CCC6[C@H](C)CCC([C@H]3C)[C@]64OO5)O[C@@H]3O[C@@]4(C)CCC1[C@@]23OO4 (some centres unmarked) [ART-838, artemisinin-derived trioxane diphenylphosphate dimer 838] |  |  |  | IC50 (MOLM14 cells [1]; MOLM14 (AML) cell line): 0.025 µM; mitochondrial superoxide (MitoSox MFI) (MOLM14 cells [2]; MOLM14, drug alone, 2.25x IC50, 16 h): increased; also recorded: induced superoxide to greater levels than AS
2 | C[C@]12O[C@H](C[C@]1(O)CO)n1c3ccccc3c3c4c(c5c6ccccc6n2c5c31)CNC4=O [LES, lestaurtinib] | 0.003 µM | 0.045 µM |  | Combination index (CI), interaction (MOLM14 cells [3]): 1.5
3 | CC(=O)N[C@@H](CS)C(=O)O [NAC] |  |  |  | IC50 (MOLM14 cells [4]; MOLM14, preliminary experiments): ~25000 µM
4 | CO[C@@H]1[C@H](N(C)C(=O)c2ccccc2)C[C@H]2O[C@]1(C)n1c3ccccc3c3c4c(c5c6ccccc6n2c5c31)C(=O)NC4 [MID, midostaurin] |  | 0.21 µM |  | 
5 | O=S(=O)(O)c1cc(O)c(O)c(S(=O)(=O)O)c1 [Tiron] |  |  |  | IC50 (MOLM14 cells [4]; Homo sapiens, MOLM-14, 48 h, MOLM14, preliminary experiments): ~1000 µM
6 | Nc1ccn([C@@H]2O[C@H](CO)[C@@H](O)[C@@H]2O)c(=O)n1 [ARA, cytarabine] |  | 0.073 µM | further enhanced | tumor growth (tumor size on day 24) [5]: inhibited tumor growth substantially more than did either drug alone
7 | COc1cccc2c1C(=O)c1c(O)c3c(c(O)c1C2=O)C[C@@](O)(C(=O)CO)C[C@@H]3O[C@H]1C[C@H](N)[C@H](O)[C@H](C)O1 [DOX, doxorubicin] | 0.079 µM | 0.03 µM | further enhanced | effect on ART-838-induced superoxide generation (MOLM14 cells [2]): further enhanced
8 | COc1cc([C@@H]2c3cc4c(cc3[C@@H](O[C@@H]3O[C@@H]5CO[C@@H](C)O[C@H]5[C@H](O)[C@H]3O)[C@H]3COC(=O)[C@H]23)OCO4)cc(OC)c1O [ETO, etoposide] |  | 0.15 µM | further enhanced | effect on ART-838-induced superoxide generation (MOLM14 cells [2]): further enhanced
9 | CNC(=O)c1cc(Oc2ccc(NC(=O)Nc3ccc(Cl)c(C(F)(F)F)c3)cc2)ccn1 [SOR, sorafenib] | 0.004 µM | 4.2 µM | reduced | tumor growth (tumor size on day 24) (MOLM14 AML xenografts): inhibited tumor growth substantially more than did either drug alone
10 | CC(=O)N(O)CCCCCNC(=O)CCC(=O)N(O)CCCCCNC(=O)CCC(=O)N(O)CCCCCN [DFO, deferoxamine mesylate] |  |  |  | IC50 (MOLM14 cells [4]; Homo sapiens, MOLM-14, 48 h): ~11 µM

— patent US9918972B2, “Treatment of leukemia with artemisinin derivatives and combinations with other antineoplastic agents” (UNIVERSITY OF MARYLAND, BALTIMORE, priority 2014, dated 2018)
